Results as given in article PMC8119466, “A screen of FDA-approved drugs identifies inhibitors of protein tyrosine phosphatase 4A3 (PTP4A3 or PRL-3)” (Scientific Reports, 2021).
Structures can show the parent of a compound that is named as a salt. Where two headings read alike, the source gives them in different places.

What was measured:
Type in all cases: biochemical
recombinant PRL-2 = molecular target: T1, recombinant PRL-2 (Homo sapiens, UniProt Q12974); test: In vitro phosphatase assay (DiFMUP hydrolysis), PRL-2;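 also: PRL-2 activity read as DiFMUP hydrolysis after 20 min at room temperature with drug, enzyme first pre-reduced at 4 °C for 20 min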
T1 construct: 6xHis (N, cleaved yes); made in house; host or cells: E. coli One Shot BL21 Star
T1 sequence (Q12974 1-167): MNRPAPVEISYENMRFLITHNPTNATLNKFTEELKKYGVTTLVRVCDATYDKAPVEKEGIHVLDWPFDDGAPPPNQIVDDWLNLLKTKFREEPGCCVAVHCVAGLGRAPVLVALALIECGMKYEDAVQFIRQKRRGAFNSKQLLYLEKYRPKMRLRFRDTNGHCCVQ

recombinant PRL-1 = molecular target: T2, recombinant PRL-1 (Homo sapiens, UniProt Q93096); test: In vitro phosphatase assay (DiFMUP hydrolysis), PRL-1; also: test concentration or dose not given here
T2 construct: 6xHis (N, cleaved yes); made in house; host or cells: E. coli One Shot BL21 Star
T2 sequence (Q93096 1-173): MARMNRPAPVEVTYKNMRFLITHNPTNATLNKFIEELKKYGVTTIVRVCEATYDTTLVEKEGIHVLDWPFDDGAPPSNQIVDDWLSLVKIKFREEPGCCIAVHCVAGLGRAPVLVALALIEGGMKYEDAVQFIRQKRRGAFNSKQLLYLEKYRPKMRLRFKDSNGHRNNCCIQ

recombinant PRL-3 = molecular target: T3, recombinant PRL-3 (Homo sapiens, UniProt O75365); test: In vitro phosphatase assay (DiFMUP hydrolysis), PRL-3; also: test concentration or dose not given here
T3 construct: 6xHis (N, cleaved yes); made in house; host or cells: E. coli One Shot BL21 Star

[1] = FDA-approved drug screen, compared to DMSO

T3 sequence (O75365 whole entry): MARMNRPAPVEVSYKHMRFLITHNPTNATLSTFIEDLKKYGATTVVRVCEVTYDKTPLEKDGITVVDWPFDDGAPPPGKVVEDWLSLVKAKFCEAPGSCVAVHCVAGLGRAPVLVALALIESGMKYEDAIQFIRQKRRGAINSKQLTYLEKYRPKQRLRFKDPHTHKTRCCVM

| SMILES | % Phosphatase Activity (compared to DMSO) PRL-2 (recombinant PRL-2; [1]) | % Phosphatase Activity (compared to DMSO) PRL-1 (recombinant PRL-1; [1]) | % Phosphatase Activity (compared to DMSO) PRL-3 (recombinant PRL-3; [1]) | % Phosphatase Activity (compared to DMSO) PRL-2 (recombinant PRL-2) | % Phosphatase Activity (compared to DMSO) PRL-1 (recombinant PRL-1) | % Phosphatase Activity (compared to DMSO) PRL-3 (recombinant PRL-3) |
| --- | --- | --- | --- | --- | --- | --- |
| Cl.NCCS [Cysteamine HCl] | 79% | 91% | 70% |  |  |  |
| Nc1ccn([C@@H]2O[C@H](CO)[C@@H](O)[C@@H]2O)c(=O)n1 [Cytarabine] | 86% | 104% | 91% |  |  |  |
| CC(C)(CO)[C@@H](O)C(=O)NCCCO [D panthenol] | 80% | 93% | 90% |  |  |  |
| OC[C@@H](O)[C@@H](O)[C@H](O)[C@H](O)CO [D-Mannitol] | 101% | 93% | 104% |  |  |  |
| CCN(CC)C(=O)c1cccc(C)c1 [DEET] | 77% | 95% | 85% |  |  |  |
| CCCCCCOC(=O)N=C(N)c1ccc(NCc2nc3cc(C(=O)N(CCC(=O)OCC)c4ccccn4)ccc3n2C)cc1 [Dabigatran Etexilate] | 112% | 121% | 106% |  |  |  |
| CC(C)(C)c1nc(-c2cccc(NS(=O)(=O)c3c(F)cccc3F)c2F)c(-c2ccnc(N)n2)s1 [Dabrafenib (GSK2118436)] | 82% | 81% | 86% |  |  |  |
| CN(C)/N=N/c1[nH]cnc1C(N)=O [Dacarbazine] | 98% | 92% | 76% |  |  |  |
| COC(=O)N[C@H](C(=O)N1CCC[C@H]1c1ncc(-c2ccc(-c3ccc(-c4cnc([C@@H]5CCCN5C(=O)[C@@H](NC(=O)OC)C(C)C)[nH]4)cc3)cc2)[nH]1)C(C)C [Daclatasvir (BMS-790052)] | 324% | 320% | 236% |  |  |  |
| COc1cc2ncnc(Nc3ccc(F)c(Cl)c3)c2cc1NC(=O)/C=C/CN1CCCCC1 [Dacomitinib (PF299804, PF299)] | 147% | 145% | 120% |  |  |  |
| CN1C[C@@H]2C[C@H]1CN2c1cc2c(cc1F)c(=O)c(C(=O)O)cn2C1CC1.CS(=O)(=O)O [Danofloxacin Mesylate] | 757% | 998% | 146% |  |  |  |
| O=C1c2cccc(O)c2C(=O)c2c(O)cccc21 [Danthron] | 96% | 96% | 78% |  |  |  |
| O=C1CN(/N=C/c2ccc(-c3ccc([N+](=O)[O-])cc3)o2)C(O)=N1 [Dantrolene sodium] | 75% | 76% | 60% |  |  |  |
| CCOc1ccc(Cc2cc([C@@H]3O[C@H](CO)[C@@H](O)[C@H](O)[C@H]3O)ccc2Cl)cc1 [Dapagliflozin] |  |  |  | 91% | 98% | 89% |
| CN(C)[C@@H](CCOc1cccc2ccccc12)c1ccccc1 [Dapoxetine HCl] | 109% | 99% | 111% |  |  |  |
| Nc1ccc(S(=O)(=O)c2ccc(N)cc2)cc1 [Dapson] | 100% | 89% | 75% |  |  |  |
| CCCCCCCCCC(=O)N[C@@H](Cc1c[nH]c2ccccc12)C(=O)N[C@H](CC(N)=O)C(=O)N[C@@H](CC(=O)O)C(=O)N[C@@H]1C(=O)NCC(=O)N[C@@H](CCCN)C(=O)N[C@@H](CC(=O)O)C(=O)N[C@H](C)C(=O)N[C@@H](CC(=O)O)C(=O)NCC(=O)N[C@H](CO)C(=O)N[C@@H]([C@H](C)CC(=O)O)C(=O)N[C@@H](CC(=O)c2ccccc2N)C(=O)O[C@@H]1C [Daptomycin] | 75% | 90% | 95% |  |  |  |
| NC(=O)C(c1ccccc1)(c1ccccc1)[C@@H]1CCN(CCc2ccc3c(c2)CCO3)C1 [Darifenacin HBr] |  |  |  | 102% | 100% | 87% |
| CC(C)CN(C[C@@H](O)[C@H](Cc1ccccc1)NC(=O)O[C@H]1CO[C@H]2OCC[C@H]21)S(=O)(=O)c1ccc(N)cc1.CCO [Darunavir Ethanolate] | 81% | 99% | 80% |  |  |  |
| Cc1nc(Nc2ncc(C(=O)Nc3c(C)cccc3Cl)s2)cc(N2CCN(CCO)CC2)n1 [Dasatinib Monohydrate] | 79% | 97% | 98% |  |  |  |
| Cc1nc(Nc2ncc(C(=O)Nc3c(C)cccc3Cl)s2)cc(N2CCN(CCO)CC2)n1 [Dasatinib] | 88% | 89% | 81% |  |  |  |
| COc1cccc2c1C(=O)c1c(O)c3c(c(O)c1C2=O)C[C@@](O)(C(C)=O)C[C@@H]3O[C@H]1C[C@H](N)[C@H](O)[C@H](C)O1 [Daunorubicin HCl] | 92% | 83% | 82% |  |  |  |
| Nc1ncn([C@H]2C[C@H](O)[C@@H](CO)O2)c(=O)n1 [Decitabine] | 93% | 114% | 81% |  |  |  |
| CNC(=O)c1ccc(Nc2ncc(C(F)(F)F)c(NCc3nccnc3N(C)S(C)(=O)=O)n2)cc1 [Defactinib (VS-6063, PF-04554878)] | 87% | 98% | 89% |  |  |  |
| O=C(O)c1ccc(-n2nc(-c3ccccc3O)nc2-c2ccccc2O)cc1 [Deferasirox] | 104% | 108% | 81% |  |  |  |
| CC(=O)OCC(=O)[C@@]12N=C(C)O[C@@H]1C[C@H]1[C@@H]3CCC4=CC(=O)C=C[C@]4(C)[C@H]3[C@@H](O)C[C@@]12C [Deflazacort] | 102% | 90% | 103% |  |  |  |
| CC(=O)C1C(=O)C=C(C)OC1=O (stereo not drawn) [Dehydroacetic acid] | 98% | 99% | 90% |  |  |  |
| C[C@H](CCC(=O)O)[C@H]1CC[C@H]2[C@@H]3C(=O)C[C@@H]4CC(=O)CC[C@]4(C)[C@H]3CC(=O)[C@]12C [Dehydrocholic acid] | 118% | 103% | 80% |  |  |  |
